The conditions of data set [1]: prior-art NO-releasing small molecules; cited from earlier work.

What is called melting point is the temperature, or range, at which the solid turns liquid. Molecule `O=C(CCCCCO[N+](=O)[O-])Oc1ccc(-c2coc3cc(OC(=O)CCCCCO[N+](=O)[O-])ccc3c2=O)cc1` gave a melting point of 100 to 102 °C. For the molecule `CC(C)(SN=O)C(N)C(=O)O` (racemic) [S-nitroso-D,L-penicillamine], the “lifetime in physiological solution” value in data set [1] was “no more than about an hour”.

As for `N[C@@H](CSN=O)C(=O)O` [S-nitrosocysteine], the “lifetime in physiological solution” value in data set [1] is listed as “no more than about an hour”.
